Assay: Solubility properties in acrylate monomers
Assay type: physicochemical
Settings: 0.2 g in 2.5 g TMP(3EO)TA, 40° C.
Description: For determining the solubility properties in acrylate monomers, which are customarily used for the preparation of overprint varnishes and UV-curable inks, 0.2 g each of the compounds obtained according to Examples 1 and 2 is stirred into 2.5 g of the acrylate monomer in question. In dipropylene glycol diacrylate (DPGDA) both compounds have dissolved within a period of 15 minutes at room temperature. In ethoxylated trimethylolpropane triacrylate (TMP(3EO)TA) the compound according to Example 2 dissolves within a period of 10 minutes at 40° C., while the compound according to Example 1 dissolves after only 4 minutes' heating at 40° C.

| time to dissolve in ethoxylated trimethylolpropane triacrylate (TMP(3EO)TA) | SMILES |
| --- | --- |
| 4 min | Cc1cccc(C(=O)c2ccc(-c3ccccc3)cc2)c1 [Example 1, 3-methyl-4′-phenylbenzophenone] |
| ≤ 10 min | Cc1cc(C)c(C(=O)c2ccc(-c3ccccc3)cc2)c(C)c1 [Example 2, 2,4,6-trimethyl-4′-phenylbenzophenone] |

Reference: patent publication US20060160915A1, “Photocurable compositions” (priority 2003, published 2006)
